Measurements taken from US8962553B2, “Method of treating a diabetic subject having a microvascular impairment disorder by a pegylated C-peptide” (Cebix Ab, priority 2011, dated 2015).
Where two headings read alike, the source gives them in different places.

Tests used:
[1] = in vivo; cited from earlier work
[2] = Single-dose pharmacokinetic study of C-peptide in patients with type 1 diabetes; conditions: human, in vivo; for Vd: 0.45 mg (150 nmol) i.v., mean ± SD
Description: (§1) In a single-dose pharmacokinetic study of C-peptide in patients with type 1 diabetes, recombinant human C-peptide was administered subcutaneously at doses of 150 nmol, 600 nmol, 1800 nmol, and intravenously at a dose of 150 nmol with a wash-out period of at least three days.

[3] = cited from earlier work
[4] = in vivo
[5] = STZ rat Study #1: animal survival and clinical observations; assay type: in vivo; conditions: Group 5: 1.5 mg/kg over 24 h by pump, N 10, STZ rats, end of study
Description: Male Sprague Dawley rats (Harlan Laboratories, Inc.; Indianapolis, Ind.) weighing approximately 400 g had type 1 diabetes induced on Day 1 by intravenous administration of clinical-grade STZ (Zanosar®; 50 mg/kg in Study #1 and 33 mg/kg in Study #2). On Day 3 (Study #1) or Day 4 (Study #2), blood was collected and K3EDTA plasma was analyzed for endogenous C-peptide levels and animals with C-peptide <0.4 nM were randomized on Day 7 (Study #1) or Day 9 (Study #2) taking into account body weight and blood glucose (criterion in the range 400-600 mg/dL). Randomization was done using Covance's BRAT system.
Insulin (Lantus®, long-acting insulin glargine) was used in both studies and administered subcutaneously in the evening before the start of the 12-hour dark cycle in the animal room (time period when most food consumption takes place). In Study #1, rats were initiated on insulin after there were a number of animal deaths starting early in the study (3 days into the treatment period). All animals were receiving 3 U/day of insulin by the end of the study. […] Additionally to limit dehydration when needed throughout the studies, warm sterile saline (volume determined by veterinarian) was administered to animals, and in particular in Study #2, to animals 24 hours prior to undergoing surgery for pump implantation. […]

clinical = conditions: human, in vivo
Description: as §1

Glargine insulin
duration of activity [1]: 24 h
peak time of effect [1]: no peak effect

CC(C)C[C@H](NC(=O)[C@H](C)NC(=O)[C@H](CC(C)C)NC(=O)[C@@H]1CCCN1C(=O)[C@H](CCC(N)=O)NC(=O)[C@H](CC(C)C)NC(=O)[C@H](CO)NC(=O)CNC(=O)[C@H](C)NC(=O)CNC(=O)[C@@H]1CCCN1C(=O)CNC(=O)CNC(=O)CNC(=O)[C@H](CC(C)C)NC(=O)[C@H](CCC(=O)O)NC(=O)[C@@H](NC(=O)[C@H](CCC(N)=O)NC(=O)CNC(=O)[C@@H](NC(=O)[C@H](CCC(N)=O)NC(=O)[C@H](CC(C)C)NC(=O)[C@H](CC(=O)O)NC(=O)[C@H](CCC(=O)O)NC(=O)[C@H](C)NC(=O)[C@@H](N)CCC(=O)O)C(C)C)C(C)C)C(=O)N[C@@H](CCC(=O)O)C(=O)NCC(=O)N[C@@H](CO)C(=O)N[C@@H](CC(C)C)C(=O)N[C@@H](CCC(N)=O)C(=O)O [C-peptide]
Cmax ([2]; iv, 0.45 mg): 30.8 ± 6.57 nM
clearance ([2]; iv, 0.45 mg): 250 ± 46 mL/min
Vd ([2]; iv, 0.45 mg, Vss): 10.9 ± 1.97 L
Vd ([2]; iv, 0.45 mg, Vz): 25.6 ± 7.65 L
Cmax ([2]; sc, 0.45 mg): 3.7 ± 1.04 nM
Tmax ([2]; sc, 0.45 mg): 0.833 h
bioavailability ([2]; sc, 0.45 mg): 86.9 ± 12.1%
Cmax ([2]; sc, 1.8 mg): 14.3 ± 3.22 nM
Tmax ([2]; sc, 1.8 mg): 1.08 h
Cmax ([2]; sc, 5.4 mg): 40.3 ± 7.03 nM
Tmax ([2]; sc, 5.4 mg): 1.22 h
half-life ([3]; healthy subjects, range of 24.9-45.3 minutes): 0.558 h
half-life ([3]; subjects with type 1 diabetes, range of 39.4-48.5 minutes): 0.708 h
dose required to obtain a plasma concentration of 1-3 nM [4]: 10.5 mg/week
dose required to obtain a plasma concentration of 1-3 nM for most of the day [4]: 1.5 mg/day
Number of Surviving Animals [5]: 1
half-life (clinical; iv, 0.45 mg): 1.13 h
CL/F (clinical; sc, 0.45 mg): 290 ± 67 mL/min
Vd/F (clinical; sc, 0.45 mg): 28.3 ± 8.96 L
half-life (clinical; sc, 0.45 mg): 1.13 ± 0.35 h
CL/F (clinical; sc, 1.8 mg): 270 ± 47 mL/min
Vd/F (clinical; sc, 1.8 mg): 23.4 ± 5.27 L
half-life (clinical; sc, 1.8 mg): 1.02 h
CL/F (clinical; sc, 5.4 mg): 250 ± 41 mL/min
Vd/F (clinical; sc, 5.4 mg): 24.4 ± 5.47 L
half-life (clinical; sc, 5.4 mg): 1.13 h

Regular insulin: short-acting insulin preparation
onset of action [1]: 30 to 60 min
